Test results reported in patent US20230346831A1, “METHODS FOR TREATING […] USING LOW DOSE CARBON MONOXIDE” (priority 2020, published 2023).
Several values for one entry are separate records, joined by “and”; a condition that tells them apart may be missing. Equal entries are not always repeated.

Tested on: MCF7/TGL cells
Assay: metabolomic assay (polar metabolite profiling, mass spectrometry)
Type: cell-based, human
Conditions: MCF7/TGL cells treated with CO, replicates CO 1-3
Experimental: Extraction and analysis were performed with the same parameters as the method disclosed in FIG. 7.
7 × 10^6 cells were seeded in 10-cm cell culture plates with DMEM containing 10% FBS, 0.2 mM L-glutamine and 1% penicillin/streptomycin. Additionally, MCF7/TGL/pQ was cultured in media containing 0.5 µgml^-1 puromycin and 25 mM HEPES. After 16 hours of incubation, metabolites were extracted from the cells using 80% methanol. The remaining steps were carried out by Weill Cornell Medicine Proteomics and Metabolomics Core Facility according to M. D. Goncalves et al., Proc Natl Acad Sci USA 115, E743-E752 (2018). All data analyses were done using MetaboAnalyst 4.0 (www.metaboanalyst.ca/).
To investigate whether 250 ppm CO mimics hypoxia, the HiF1α protein levels were examined in CO treated MCF7/TGL and MDA-MB-231/TGL cells. […] To determine whether 250 ppm CO affects metabolism, polar metabolites were profiled using two breast cancer cell lines, MCF7/TGL and MDA-MB-231/TGL (FIGS. 7-9).

SMILES: [C-]#[O+] [CO, Carbon monoxide]
- Peak Height 2-Ketobutyric acid (HMDB00005): 4,031,318 and 4,391,029 and 5,247,754
- Peak Height Deoxyuridine (HMDB00012): 4,052 and 3,614 and 4,205
- Peak Height Carnosine (HMDB00033): 2,611,797 and 2,457,728 and 2,635,558
- Peak Height Adenine (HMDB00034): 319,396 and 405,129 and 608,706
- Peak Height Dihydrobiopterin (HMDB00038): 37,904,750 and 45,778,470 and 54,551,140
- Peak Height Betaine (HMDB00043): 211,641,600 and 205,281,000 and 256,902,700
- Peak Height Ascorbic acid (HMDB00044): 1,179,857 and 2,029,092 and 5,154,497
- Peak Height Adenosine monophosphate (HMDB00045): 595,508 and 473,948 and 497,428
- Peak Height Adenosine (HMDB00050): 14,622 and 14,037 and 23,296
- Peak Height Argininosuccinic acid (HMDB00052): 180,070 and 286,271 and 472,100
- Peak Height L-Carnitine (HMDB00062): 275,929,100 and 289,061,800 and 291,180,600
- Peak Height Creatine (HMDB00064): 394,311,900 and 394,104,400 and 478,205,800
- Peak Height cis-Aconitic acid (HMDB00072): 11,654,680 and 13,826,410 and 17,813,720
- Peak Height Cytidine triphosphate (HMDB00082): 248,084 and 155,802 and 221,285
- Peak Height Glycerophosphocholine (HMDB00086): 299,915,900 and 348,438,900 and 459,259,100
- Peak Height Cytidine (HMDB00089): 104,165 and 69,105 and 173,745
- Peak Height Dimethylglycine (HMDB00092): 6,279,555 and 7,567,884 and 7,137,536
- Peak Height Citric acid (HMDB00094): 83,266,830 and 83,863,100 and 100,258,700
- Peak Height Cytidine monophosphate (HMDB00095): 93,671 and 115,860 and 141,423
- Peak Height Choline (HMDB00097): 183,705,300 and 191,547,400 and 211,305,800
- Peak Height L-Cystathionine (HMDB00099): 13,082,840 and 16,491,010 and 22,978,520
- Peak Height D-Glucose (HMDB00122): 24,253,400 and 27,009,740 and 49,287,950
- Peak Height Glycine (HMDB00123): 97,069,490 and 60,912,580 and 81,769,040
- Peak Height Fructose 6-phosphate (HMDB00124): 689,466 and 869,013 and 1,084,547
- Peak Height Glutathione (HMDB00125): 166,253,500 and 185,818,800 and 224,175,500
- Peak Height Glycerol3-phosphate (HMDB00126): 242,288 and 358,077 and 520,107
- Peak Height D-Glucuronic acid (HMDB00127): 193,639 and 229,627 and 245,391
- Peak Height Fumaric acid (HMDB00134): 5,149,166 and 6,086,688 and 8,204,115
- Peak Height L-Glutamic acid (HMDB00148): 344,240,500 and 392,276,300 and 563,702,200
- Peak Height Hypoxanthine (HMDB00157): 207,108 and 78,064 and 86,812
- Peak Height L-Tyrosine (HMDB00158): 58,933,980 and 62,662,290 and 101,701,400
- Peak Height L-Phenylalanine (HMDB00159): 287,943,500 and 304,931,600 and 425,257,300
- Peak Height L-Alanine (HMDB00161): 24,164,680 and 26,271,210 and 37,606,940
- Peak Height L-Proline (HMDB00162): 456,504,200 and 470,321,900 and 561,265,500
- Peak Height L-Threonine (HMDB00167): 103,403,600 and 114,367,100 and 144,573,600
- Peak Height L-Asparagine (HMDB00168): 42,196,450 and 47,225,620 and 55,751,170
- Peak Height L-Isoleucine (HMDB00172): 339,480,000 and 333,493,200 and 481,854,600
- Peak Height Inosinic acid (HMDB00175): 22,764 and 28,902 and 46,283
- Peak Height L-Histidine (HMDB00177): 295,632,700 and 322,360,800 and 456,145,200
- Peak Height L-Lysine (HMDB00182): 41,138,540 and 40,717,620 and 74,426,720
- Peak Height Alpha-Lactose (HMDB00186): 261,525 and 290,474 and 303,327
- Peak Height L-Serine (HMDB00187): 22,682,210 and 24,881,370 and 27,375,240
- Peak Height L-Lactic acid (HMDB00190): 135,248,600 and 168,348,200 and 288,458,500
- Peak Height L-Aspartic acid (HMDB00191): 12,945,220 and 18,829,880 and 30,552,150
- Peak Height L-Acetylcarnitine (HMDB00201): 191,662,400 and 208,376,400 and 217,883,700
- Peak Height N6-Acetyl-L-lysine (HMDB00206): 126,221 and 143,548 and 210,190
- Peak Height Oxoglutaric acid (HMDB00208): 24,674,800 and 27,743,170 and 32,411,680
- Peak Height Pantothenic acid (HMDB00210): 49,604,040 and 57,015,540 and 93,443,310
- Peak Height Myoinositol (HMDB00211): 1,493,285 and 1,572,114 and 2,893,583
- Peak Height Ornithine (HMDB00214): 3,323,027 and 3,678,113 and 4,669,739
- Peak Height NADP (HMDB00217): 35,994 and 44,669 and 56,121
- Peak Height Orotic acid (HMDB00226): 107,743 and 166,715
- Peak Height Thiamine (HMDB00235): 13,320,550 and 15,145,370 and 21,979,980
- Peak Height Pyruvic acid (HMDB00243): 6,830,386 and 7,616,124 and 9,628,515
- Peak Height Riboflavin (HMDB00244): 8,515 and 36,944
- Peak Height Taurine (HMDB00251): 213,761,300 and 213,696,600 and 188,154,600
- Peak Height Succinic acid (HMDB00254): 3,099,054 and 3,989,967 and 6,160,312
- Peak Height Thymine (HMDB00262): 7,867,191 and 9,149,847 and 12,133,270
- Peak Height Phosphoenolpyruvic acid (HMDB00263): 3,181,575 and 5,081,852 and 6,959,276
- Peak Height Pyroglutamic acid (HMDB00267): 70,921,790 and 82,143,660 and 125,886,000
- Peak Height Thymidine (HMDB00273): 18,849 and 10,836 and 11,271
- Peak Height Uridine triphosphate (HMDB00285): 972,321 and 740,370 and 1,159,635
- Peak Height Uridine diphosphate glucose (HMDB00286): 3,510,195 and 3,063,631 and 4,862,560
- Peak Height Uridine 5′-monophosphate (HMDB00288): 35,559 and 34,351 and 45,597
- Peak Height Uric acid (HMDB00289): 2,364,329 and 2,512,157 and 4,422,182
- Peak Height Uridine diphosphate-N-acetylglucosamine (HMDB00290): 38,715,250 and 42,157,110 and 45,820,290
- Peak Height Xanthine (HMDB00292): 3,106,304 and 2,715,740 and 5,495,149
- Peak Height Uridine 5′-diphosphate (HMDB00295): 297,075 and 234,752 and 314,015
- Peak Height Uridine (HMDB00296): 51,402 and 29,724 and 61,581
- Peak Height Uracil (HMDB00300): 621,176 and 684,209 and 956,261
- Peak Height Urocanicacid (HMDB00301): 330,874 and 577,556 and 198,149
- Peak Height 3-Hydroxymethylglutaric acid (HMDB00355): 5,766,106 and 4,010,368 and 3,996,699
- Peak Height Allantoin (HMDB00462): 1,483,552 and 1,936,773 and 3,316,178
- Peak Height Caprylic acid (HMDB00482): 3,978,947 and 2,718,335 and 2,586,172
- Peak Height Aminoadipic acid (HMDB00510): 5,713,433 and 5,346,300 and 7,560,774
- Peak Height L-Arginine (HMDB00517): 64,328,130 and 65,745,300 and 95,595,630
- Peak Height Adenosine triphosphate (HMDB00538): 1,853,382 and 1,283,500 and 2,002,755
- Peak Height Creatinine (HMDB00562): 20,992,210 and 21,746,470 and 37,545,350
- Peak Height Galactonic acid (HMDB00565): 8,090,935 and 11,406,370 and 14,258,950
- Peak Height D-Arabitol (HMDB00568): 250,315 and 263,626 and 418,856
- Peak Height D-2-Hydroxyglutaric acid (HMDB00606): 460,608 and 570,887 and 905,587
- Peak Height Gluconic acid (HMDB00625): 6,277,480 and 8,930,573 and 14,396,540
